Data set [1] has as its system DT22 breast tumor xenografts. As to the kind of experiment: DT22 human breast tumor xenograft growth in NSG mice. As to conditions: for tumor growth: DT22 tumors, NSG mice. In kind it is in vivo. The method, then: For examination of the effects of compounds on breast tumor growth suppression, intact female NOD/SCID-gamma (NSG) mice were used as detailed previously.[39] DT-22 breast cancer cells (1 × 10^6 cells/mouse) were injected s.c. into the right axial mammary gland. Mice received s.c. injection or oral gavage daily or every second or third day as indicated, with vehicle or treatment compound, and tumor volume (length × width^2/2) was monitored over time.

Data set [2] relates to MDA-MB-231 cells. In words: Cell cycle analysis by flow cytometry. In kind it is cell-based, human. Particulars: synchronized, released 24 h, 1.5, 3.0, 4.5 µM. The method, then: Cells were synchronized by double thymidine block prior to cell cycle analysis by Propidium Iodide (PI) staining. Briefly, the cells were blocked with 2 mM thymidine for 18 h, then released with fresh media for 8 h followed by re-blocking with thymidine for another 16 h. Following the second block, the cells were released with or without treatments with the NB compounds and cells were collected and fixed in 70% ethanol at the time points indicated. After alcohol fixation for 2 h, the cells were washed with cold 1XPBS followed by staining with 50 µg/ml PI solution in PBS with addition of 5 µg/ml RNAse A for at least 4 h. The cells were then analyzed by the Flow Cytometry analyzer BD LSR II for percentage of cells in G1/G0, S, and G2/M phases of the cell cycle.
A general note: A flow cytometer gives signals particle by particle.

The test system of data set [3] is MDA-MB-231 cells. In words: Apoptosis by AnnexinV/propidium iodide flow cytometry. In kind it is cell-based, human. Particulars: 1.5 or 3 µM, 24 h or 72 h. The method, then: (§1) The cells were analyzed for percentage of apoptotic cells following 24 h or 72 h of vehicle or compound treatment by staining with the Alexa Fluor® 488 Annexin V/Dead Cell Apoptosis Kit (Thermo Fisher) and flow cytometry according to the manufacturer’s protocol. Caspase activity in the cells after treatment with control vehicle or compounds was determined using the Caspase-Glo 3/7 Assay system (Promega) in a 96-well format following the manufacturer’s instructions. Supplementary Figs 6 and 7 exemplify the gating strategy used for the cell cycle and apoptosis flow cytometry analyses.

The test system of data set [4] is Caspase 3/7 activity. As to the kind of experiment: Caspase Glo 3/7 assay. In kind it is cell-based, human. As to conditions: 1.5 or 3 µM, 24 h. The method, then:
as §1

Data set [5] relates to FOXM1 target gene expression in MCF7 cells. In words: FOXM1 target gene expression by qRT-PCR. The class given is cell-based, human. Particulars: MCF7, 24 h, compound at its IC50 for proliferation. The method, then:
Total RNA was isolated using TRIzol (Invitrogen) and reverse transcribed using […] reverse transcriptase (New England BioLabs). Real-time PCR was performed using SYBRgreen PCR Master Mix (Quantabio) as described.[15] Relative mRNA levels of genes were normalized to the housekeeping gene 36B4, and fold-change calculated relative to the vehicle treated samples. Results are the average ± SD from at least two independent experiments carried out in triplicate. Primer sequences for the genes studied were obtained from the Harvard Primer Bank. Sequences are available on their website.
Background: Real-time PCR tracks product formation cycle by cycle.

The subject of data set [6] is FOXM1 target genes in MDA-MB-231 cells. As to the kind of experiment: RNA-Seq Gene Set Enrichment Analysis against FOXM1 target gene sets. In kind it is cell-based, human. As to conditions: NB-73 […] 24 h, siFOXM1 25 nM 72 h. The method, then:
(§2) For gene expression analysis, total RNA was extracted from cells using Trizol reagent and further cleaned using the Turbo DNase and RNAqueous kits (ThermoFisher). Cells were treated with Veh (0.1% EtOH), or with the compounds indicated for 9 h or 24 h. Once the sample quality and replicate reproducibility were verified, samples from each group were subjected to sequencing. RNA at a concentration of 100 ng/µl in nuclease-free water was used for library construction. cDNA libraries were prepared with the mRNA-TruSeq Kit (Illumina, Inc.). In brief, the poly-A containing mRNA was purified from total RNA, the RNA was fragmented, double-stranded cDNA was generated from fragmented RNA, and adapters were ligated to the ends.
The paired-end read data from the HiSeq 4000 were processed and analyzed through a series of steps. […] Reads were trimmed of adapters and low expression data using Trimmomatic version 0.38.[42] The STAR alignment tool version 2.5.3a was used to align the sequenced reads to the GRCh37 human genome from Ensembl.[43] Gene counts were calculated using subread version 1.5.2.[44],[45] […]
Gene Set Enrichment Analysis (GSEA)[48] was used for examination of our genome-wide expression profiles. Overrepresented gene ontology (GO) biological processes were determined by the web-based DAVID Bioinformatics Resources database.[49],[50] […]

Data set [7] can be described thus: Pharmacokinetics in mice after single s.c. or oral dose. In kind it is in vivo, female CD1 mice. As to conditions: for AUC / Cmax / half-life: female, CD1, mouse, 60 mg/kg, single dose, plasma.
Method: The pharmacokinetics of compounds were monitored after single dose administration into female CD1 mice (7–9 weeks of age) via s.c. injection or oral gavage, as described.[39] For s.c. injection, each compound was dissolved in DMSO and then mixed with corn oil for a total injection volume of 100 μL (10% DSMO + 90% corn oil) per mouse. For oral gavage, compounds were administered in a 200 µL formulation of 9/0.5/0.5/90 parts of PEG400/Tween80/Povidone/0.5% Carboxymethylcellulose in DI water. […] Compounds were quantified by LC-MS/MS at the University of Illinois Metabolomics Core Facility. The data were fitted to a non-compartment model.
In data set [8] the test system is MCF7 cells. As to the kind of experiment: RNA-Seq gene regulation in MCF7 cells. In kind it is cell-based, human. Particulars: MCF7, 9 h treatment, p < 0.05; FDI-6 20 µM. The method, then: as §2
The paired-end read data from the HiSeq 4000 were processed and analyzed through a series of steps. Base calling and de-multiplexing of samples within each lane were done with Casava 1.8.2. The RNA sequences were prepared with Illumina’s TruSeq Stranded mRNAseq Sample Prep kit. Reads were trimmed of adapters and low expression data using Trimmomatic version 0.38.[42] The STAR alignment tool version 2.5.3a was used to align the sequenced reads to the GRCh37 human genome from Ensembl.[43] Gene counts were calculated using subread version 1.5.2.[44],[45] The edgeR Bioconductor package in R was used for normalization and differential expression analysis. Default normalization methods were used, specifically trimmed mean of M values or TMM was used to calculate the normalized expression values. This method calculates the weighted trimmed mean of the log expression ratios in a gene-wise fashion.[46],[47] We considered genes with fold-change > 2 and p-value < 0.05 as statistically significant, differentially expressed.

The test system of data set [9] is FOXM1-regulated genes in DT22 tumors. In words: FOXM1-regulated gene expression in xenograft tumors by q-PCR. In kind it is in vivo, NSG mice. As to conditions: 10 mg/kg NB-73 s.c., end of treatment. The source says:
Primer sequences for the genes studied were obtained from the Harvard Primer Bank. Sequences are available on their website.

For data set [10], the system named is tamoxifen-resistant MCF7 breast cancer cells. As to the kind of experiment: Proliferation of tamoxifen-resistant MCF7 cells. In kind it is cell-based, human. As to conditions: 6 days, cell numbers. The protocol: resistant MCF7 cells. Cells were treated with NB-73 or trans-hydroxytamoxifen (OH-
Tam) for 6 days and cell numbers were monitored. Values are mean ± SD of three
(1 picture or pasted object on this page, not shown here)

Consider 1 compound from paper PMC6884575, “Suppression of FOXM1 activities and breast cancer growth in vitro and in vivo by a new class of compounds” (NPJ Breast Cancer, 2019).

What is called AUC is concentration integrated over time. High values mean more exposure, low ones less exposure. The Cmax is the maximum level reached in the sampled fluid or tissue. As a reminder, the half-life is the time needed for the level to fall by half in the phase considered. A low value points to fast loss.

Each structure is given as a SMILES string.

With `C[N+]1(CCCCCCOc2ccc(C(=C3C4CC5CC(C4)CC3C5)c3ccc(OCCCCCC[N+]4(C)CCCCCC4)cc3)cc2)CCCCCC1` [NB-73], in [1] (5 mg/kg s.c. daily then every other day from day 21), the tumor growth result is on record as “reduced tumor growth”. The tumor growth result in data set [1] (10 mg/kg s.c. daily then every other day from day 21) was “more markedly suppressed growth”. Further, the tumor growth entry in [1] (s.c., 20 mg/kg every other day for 10 days then 10 mg/kg every other day) is given as “greatly suppress tumor growth”. For the same compound, the “tumor growth in vivo” value in [1] (low doses (2–20 mg/kg) s.c. daily or every other day) is “greatly suppress tumor growth”. In data set [2], the “percent of cells in G2/M” value is “large increase in the percent of cells in G2/M” and the “percent of cells in S phase” value is reported as “decrease in the percent of cells in S phase”. The “percent of apoptotic cells” value in data set [3] is “increased the percent of apoptotic cells”. In addition, in [4], the “caspase 3/7 activity” value was “increased”. Also, in data set [5], the “expression of ATF3, a gene suppressed by FOXM1” value is recorded as “increased expression of ATF3” and the “expression of FOXM1 stimulated target genes (FOXM1C, AURKB, CCNB1, PLK1)” value is “significantly reduced the expression”. Also, in data set [6], the “normalized enrichment score (NES), FOXM1 target gene set” value was -1.32. The “blood levels of compound” value in data set [7] (after oral administration) was “only very low levels”. Besides, in data set [7] (after s.c. injection), the “blood levels of compound” value was “very high blood levels”. Further, in data set [7] (oral), the AUC came out at 0.015 µM·h, the Cmax came out at 5.5 nM and the half-life was 40.3 h. In data set [7] (sc), this compound showed an AUC of 158 µM·h, a Cmax of 5300 nM and a half-life of 31.4 h. The “genes regulated more than 2-fold (Venn diagram)” value in data set [8] is listed as 870 genes. For the same compound, the “expression of FOXM1-regulated genes in tumors” value in data set [9] is “greatly reduced”. Further, the “proliferation of tamoxifen-resistant MCF7 cells” value in data set [10] is “effectively suppressed the proliferation”.
